Paper PMC4145316, “Cytotoxic and Apoptosis-Inducing Activity of Triterpene Glycosides from Holothuria scabra and Cucumaria frondosa against HepG2 Cells” (Marine Drugs, 2014)

Columns and labels:
HepG2 cells [1] = assay: Mitochondrial transmembrane potential, JC-1 staining; assay type: cell-based, human; details: 2.5, 2.75 and 3 μg/mL for 6 h
Procedure: Therefore, we measured the Δψm in 1-treated HepG2 cells and control cells using JC-1 staining, and the results were shown in Figure 4. The aggregated JC-1 within normal mitochondria in HepG2 cells was dispersed to the monomeric form (green fluorescence) after treatment with 1 for 6 h. […] After treatment with 1 at 3 μg/mL, the red fluorescence disappeared and pure green fluorescence only occurred in HepG2 cells.
After treatment with 1 at the concentration of 0, 2.5, 2.75 and 3 μg/mL for 6 h, the cells were harvested, washed twice with PBS, and then incubated with 500 μL of JC-1 staining solution (5 μg/mL) at 37 °C for 30 min [43]. The stained cells were rinsed twice with PBS and resuspended in medium. The Δψm was monitored by determining the relative amounts of dual emissions from mitochondrial JC-1 monomers (green fluorescence) to aggregates (red fluorescence) using an Olympus fluorescent microscope under Argon-ion 488 nm laser excitation.

HepG2 cells [2] = assay: Apoptosis morphology, acridine orange and Hoechst 33342 staining; assay type: cell-based, human; details: 2.5 and 2.75 μg/mL for 8 h; AO and Hoechst 33342 staining
Excerpt: The induction of apoptosis in cancer cells has emerged as an exciting possibility for the development of selective cancer therapies. Apoptosis is characterized by distinct morphological features such as cell shrinkage, loss of contact with neighboring cells, formation of cytoplastic vacuoles, chromatin condensation, nuclear-membrane blebbing, oligonucleosomal DNA fragmentation, and finally breakdown of the cell into smaller units (apoptotic bodies). To further characterize the anticancer activity of 1, disorganization of the nucleus with chromatin changes in HepG2 cells treated with 1 at the concentration of 2.5 and 2.75 μg/mL for 8 h was characterized using acridine orange (OA) and Hoechst 33342 staining under fluorescence microscope.
HepG2 cells were seeded at 1 × 10^5 cells/mL into 24-well plates and then incubated at 37 °C in a humidified atmosphere with 5% CO2. After 24 h, the cells were treated with 1 at the final concentrations of 0, 2.5 and 2.75 μg/mL for 8 h. After washed twice with PBS, cells were stained with 100 μL acridine orange (AO) solution (10 μg/mL) or Hoechst 33342 solution (5 μg/mL) for 30 min, and then visualized by fluorescence microscope (Olympus, Tokyo, Japan) with 488 nm stimulation and 500–520 nm emission or 350 nm stimulation and 460 nm emission, respectively.

[3] = tested on: human hepatoma (HepG2) cells; assay: MTT cytotoxicity assay, HepG2 cells; assay type: cell-based; details: means ± SD (n = 3)
Procedure: Human hepatoma (HepG2), human cervical cancer (HeLa), human leukemia (K562) and human liver (HL-7702) cells were obtained by Shanghai Institute of Biochemistry and Cell Biology, and maintained in the logarithmic phase of growth in RPMI-1640 complete medium supplemented with 2 mM L-glutamine (Sigma Chemical Co., Saint Louis, MO, USA), 100 IU/mL penicillin, 100 μg/mL streptomycin and 10% FCS at 37 °C under humidified air with 5% CO2.
The effect of compounds 1–13 on the viability of HepG2, HeLa, K562 and HL-7702 cells was determined by MIT assay as described previously. Briefly, the tumor and normal cells were seeded at 1 × 10^4 cells/well in a 96-well microtiter plate and incubated at 37 °C in a humidified atmosphere with 5% CO2. After 24 h, compounds 1–13, the positive drug CDDP or RPMI-1640 medium were added into each well, and the plates were incubated at 37 °C for the indicated time. Each concentration was repeated four wells. 50 μL of MTT solution (2 mg/mL) was added to each well 4 h before incubation end, and incubated further for 4 h. The plates were centrifuged (1400× g, 5 min) and the untransformed MTT was removed carefully by pipetting. To each well, 150 μL of DMSO was added and the absorbance was evaluated in an ELISA reader at 570 nm after 15 min. The inhibitory rates and 50% inhibitory concentrations (IC50) values towards cell viability were calculated by NDST software. Each test was performed in triplicate.

## COC1C(O)C(CO)OC(OC2C(O)C(CO)OC(OC3C(C)OC(OC4C(OC5CCC6(C)C7=CC(O)C89C(=O)OC(C)(CCCC(C)C)C8(O)CCC9(C)C7CCC6C5(C)C)OCC(OS(=O)(=O)O)C4O)C(O)C3O)C2O)C1O.[Na+] (stereo not drawn) [Echinoside A (1), Echinoside A]
HepG2 cells [1]
  mitochondrial transmembrane potential (Δψm): significantly decreased
HepG2 cells [2]
  apoptosis in HepG2 cells (morphology): could induce apoptosis
[3]
  IC50 (μg/mL) HepG2: 1.50 ± 0.08 µg/mL
